Laboratory results reported in ChEMBL document CHEMBL1201862, “PubChem BioAssay data set” (2004).
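Each compound was tested at five concentrations against cells in 96-well plates for 48 hours. The concentration for 50% growth inhibition is given as GI50.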 Calls of active or inactive are those of the source. No stated cut-off is given here; in the data, active = GI50 up to about 1.1 µM and inactive = higher.

Legend:
Test in all cases: inhibition of tumour cell growth, NCI panel, 48 h
A549 = system: A549
ACHN = system: ACHN
DLD-1 = system: DLD-1
DU-145 = system: DU-145
HCT-15 = system: HCT-15
HT-29 = system: HT-29
IGROV-1 = system: IGROV-1
M14 = system: M14
MCF7 = system: MCF7
MOLT-4 = system: MOLT-4
NCI-H226 = system: NCI-H226
NCI-H460 = system: NCI-H460
OVCAR-8 = system: OVCAR-8
PC-3 = system: PC-3
RPMI-8226 = system: RPMI-8226
SK-MEL-28 = system: SK-MEL-28
T47D = system: T47D
TK-10 = system: TK-10
UACC-62 = system: UACC-62
UO-31 = system: UO-31

In the case of `CC(C)OC(=O)Nc1c([N+](=O)[O-])cc(C(F)(F)F)cc1[N+](=O)[O-]`, the GI50 (A549) is reported as > 100 µM (inactive), the GI50 (ACHN) is reported as > 100 µM (inactive) and the GI50 (DLD-1) is reported as > 100 µM (inactive). For the same compound, the GI50 (DU-145) was > 100 µM (inactive), the GI50 (HCT-15) was over 100 µM and the GI50 (HT-29) was > 100 µM (inactive). The GI50 (IGROV-1) was > 66.7 µM (inactive), the GI50 (M14) was > 100 µM (inactive) and the GI50 (MCF7) was > 100 µM (inactive). For the same compound, the GI50 (MOLT-4) was > 46.5 µM (inactive), the GI50 (NCI-H226) was > 89.1 µM (inactive) and the GI50 (NCI-H460) was > 100 µM (inactive). The GI50 (OVCAR-8) was 75.7 µM (inactive), the GI50 (PC-3) was > 100 µM (inactive) and the GI50 (RPMI-8226) was > 100 µM (inactive). The GI50 (SK-MEL-28) was > 100 µM (inactive), the GI50 (T47D) was > 100 µM (inactive) and the GI50 (TK-10) was > 100 µM (inactive). The GI50 (UACC-62) was > 100 µM (inactive) and the GI50 (UO-31) was > 90.2 µM (inactive).
